The experiment deals with Hep3B cells. Briefly: LLNs-mediated luciferase transfection assay (FLuc mRNA delivery). The format is cell-based, human. To be noted: FLuc mRNA-loaded LLNs, 6 h transfection, normalized to TT3 (FIG. 1). How it is done:
The synthesized compounds were formulated with 1,2-dioleoyl-sn-glycero-3-phosphoethanolamine (DOPE), cholesterol, and mRNA. The formulated nanoparticles were evaluated with a luciferase expression assay.
Benzene-1,3,5-tricarbonyl trichloride (12) was reacted with Boc-protected diamine (13) in order to produce the intermediates (14) (Broaders, K. E. et. al. Chem. Commun. (Cambridge, U. K.) 2011, 47, 665-667). Deprotection of (14) gave compound (11), which underwent reductive amination to afford the desired products compounds #1 to #10 (See Dong, Y. et. al. Proc. Natl. Acad. Sci. U.S.A 2014, 111, 3955-3960). The structures of compounds #1 to #10 were confirmed by ^1H NMR spectroscopy (See FIGS. 12-21) and mass spectrometry (See FIGS. 2-11). […] Meanwhile, particle properties (including size, zeta potential, and entrapment efficiency) are measured using a dynamic light-scattering instrument and a ribogreen assay (Love Kevin, T. et. al. Proc. Nat. Acad. Sci. U.S.A 2010, 107, 1864-1869; Chen, D. et. al. J. Am. Chem. Soc. 2012, 134, 6948-6951).
Next, delivery efficiency and cytotoxicity of compounds #1 to #10 (LLNs-FLuc mRNA) was evaluated in Hep3B cells, a human hepatoma cell line. […]

SMILES strings stand for the structures.

With `CCCCC(CCC)OC(=O)CCCCCCCCN(CCCCCCCCC(=O)OC(CCC)CCCC)CCCNC(=O)c1cc(C(=O)NCCCN(CCCCCCCCC(=O)OC(CCC)CCCC)CCCCCCCCC(=O)OC(CCC)CCCC)cc(C(=O)NCCCN(CCCCCCCCC(=O)OC(CCC)CCCC)CCCCCCCCC(=O)OC(CCC)CCCC)c1` (stereo not shown) [Compound 10], the “expression of the firefly luciferase” value is reported as “highest expression”.

The values are drawn from patent US11622942B2, “Benzene-1,3,5-tricarboxamide derived ester lipids and uses thereof” (Ohio State Innovation Foundation, priority 2017, dated 2023).
